From US20210380606A1, “5-AZAINDAZOLE DERIVATIVES AS ADENOSINE RECEPTOR ANTAGONISTS” (Merck Patent GmbH, priority 2018, published 2021)

Key:
human A2B receptors = target: T1, human A2B receptors (Homo sapiens, UniProt P29275); assay: Functional human A2B receptor activity, recombinant HEK293 cells, cAMP (HTRF); type: cell-based; conditions: read-out: A2B (Category)
T1 construct: expressed in transfected cells; host or cells: HEK293
T1 sequence (P29275 1-332): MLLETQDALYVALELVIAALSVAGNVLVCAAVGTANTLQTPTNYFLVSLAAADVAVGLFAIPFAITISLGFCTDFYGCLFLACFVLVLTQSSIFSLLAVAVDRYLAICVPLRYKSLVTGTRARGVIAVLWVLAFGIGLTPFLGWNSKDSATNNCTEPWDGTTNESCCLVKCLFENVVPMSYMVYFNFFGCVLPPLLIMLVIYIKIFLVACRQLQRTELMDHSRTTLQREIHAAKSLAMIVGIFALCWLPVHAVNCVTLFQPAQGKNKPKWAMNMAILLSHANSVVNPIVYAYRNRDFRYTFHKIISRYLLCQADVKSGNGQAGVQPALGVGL
Description: (§1) The functional activities of human A2A and A2B receptors were determined by quantification of cAMP, being the second messenger for adenosine receptors.
(§2) After a 15 min incubation, HTRF reagents (cAMP dynamic 2, Cis Bio) were added and the cellular cAMP levels were determined using the ENVISION (Perkin Elmer) plate reader.

human A2A receptors = target: T2, human A2A receptors (Homo sapiens, UniProt P29274); assay: Functional human A2A receptor activity, recombinant HEK293 cells, cAMP (HTRF); type: cell-based; conditions: read-out: A2A (Category)
T2 construct: expressed in transfected cells; host or cells: HEK293
T2 sequence (P29274 whole entry): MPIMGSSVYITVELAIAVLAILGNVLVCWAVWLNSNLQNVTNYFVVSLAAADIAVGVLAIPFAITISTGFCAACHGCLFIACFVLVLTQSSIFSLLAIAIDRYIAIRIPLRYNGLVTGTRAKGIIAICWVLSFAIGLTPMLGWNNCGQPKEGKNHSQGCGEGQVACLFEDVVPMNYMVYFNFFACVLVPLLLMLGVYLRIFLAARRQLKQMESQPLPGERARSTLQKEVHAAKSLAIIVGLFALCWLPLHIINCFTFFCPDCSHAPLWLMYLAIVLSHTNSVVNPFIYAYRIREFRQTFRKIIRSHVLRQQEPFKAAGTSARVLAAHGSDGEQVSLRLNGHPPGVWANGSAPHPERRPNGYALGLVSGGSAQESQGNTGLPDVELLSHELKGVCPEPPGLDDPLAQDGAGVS
Description: as §1, §2

`CS(=O)(=O)Cn1nc(-c2coc3ccccc23)c2cnc(C(=O)N3CC4CCC(C4)C3)cc21` [Compound 19, (3-Aza-bicyclo[3.2.1]oct-3-yl)-(3-benzofuran-3-yl-1-methanesulfonylmethyl-1H-pyrazolo[4,3-c]pyridin-6-yl)-methanone] gave an IC50 (human A2B receptors) of less than 0.1 µM and an IC50 (human A2A receptors) of less than 0.1 µM.
`O=C(c1cc2c(cn1)c(-c1coc3ccccc13)nn2CC(F)(F)F)N1CCCOCC1` [Compound 94, [3-Benzofuran-3-yl-1-(2,2,2-trifluoro-ethyl)-1H-pyrazolo[4,3-c]pyridine-6-yl]-1,4-oxazepan-4-yl-methanone] showed an IC50 (human A2B receptors) of less than 0.1 µM and an IC50 (human A2A receptors) of less than 0.1 µM.
Work on `O=C(c1cc2c(cn1)c(-c1cnc3c(F)cc(F)cn13)nn2CC(F)(F)F)N1CCC(F)CC1` [Compound 144, [3-(6,8-Difluoro-imidazo[1,2-a]pyridin-3-yl)-1-(2,2,2-trifluoro-ethyl)-1H-pyrazolo[4,3-c]pyridin-6-yl]-(4-fluoro-piperidin-1-yl)-methanone] yielded an IC50 (human A2B receptors) of less than 1 µM and an IC50 (human A2A receptors) of less than 0.1 µM.
In the case of `NC(=O)Cn1nc(-c2coc3ccccc23)c2cnc(C(=O)N3CCCOCC3)cc21` [Compound 105, 2-[3-Benzofuran-3-yl-6-(1,4-oxazepane-4-carbonyl)-pyrazolo[4,3-c]pyridin-1-yl]-acetamide], the IC50 (human A2B receptors) is reported as less than 1 µM and the IC50 (human A2A receptors) is reported as less than 0.1 µM.
`CS(=O)(=O)Cn1nc(-c2coc3ccccc23)c2cnc(C(=O)N3CCOCC(F)(F)C3)cc21` [Compound 29, (3-Benzofuran-3-yl-1-methanesulfonylmethyl-1H-pyrazolo[4,3-c]pyridin-6-yl)-(6,6-difluoro-1,4-oxazepan-4-yl)-methanone] showed an IC50 (human A2B receptors) of less than 1 µM and an IC50 (human A2A receptors) of less than 0.1 µM.
Work on `CS(=O)(=O)Cn1nc(-c2cnc3c(F)cc(F)cn23)c2cnc(C(=O)N3CCCOCC3)cc21` [Compound 15, [3-(6,8-Difluoro-imidazo[1,2-a]pyridin-3-yl)-1-methanesulfonylmethyl-1H-pyrazolo[4,3-c]pyridin-6-yl]-1,4-oxazepan-4-yl-methanone] yielded an IC50 (human A2B receptors) of less than 0.1 µM and an IC50 (human A2A receptors) of less than 0.1 µM.
`CS(=O)(=O)Cn1nc(-c2coc3ccc(F)cc23)c2cnc(C(=O)N3CC4CCC(C3)O4)cc21` [Compound 111, [3-(5-fluorobenzofuran-3-yl)-1-(methylsulfonylmethyl)pyrazolo[4,3-c]-pyridin-6-yl]-(8-oxa-3-azabicyclo[3.2.1]octan-3-yl)methanone] was tested, and the IC50 (human A2B receptors) was less than 0.1 µM and the IC50 (human A2A receptors) was less than 0.1 µM.
For `O=C(c1cc2c(cn1)c(-c1c[nH]c3ccccc13)nn2CC(F)(F)F)N1CCCOCC1` [Compound 96, [3-(1H-Indol-3-yl)-1-(2,2,2-trifluoro-ethyl)-1H-pyrazolo[4,3-c]pyridine-6-yl]-1,4-oxazepan-4-yl-methanone], the IC50 (human A2B receptors) was less than 1 µM and the IC50 (human A2A receptors) was less than 0.1 µM.
Compound `O=C(c1cc2c(cn1)c(-c1coc3ccccc13)nn2CC(F)(F)F)N1CCOCC(F)(F)C1` [Compound 217] has an IC50 (human A2B receptors) of less than 0.1 µM and an IC50 (human A2A receptors) of less than 0.1 µM.
Compound `O=C(c1cc2c(cn1)c(-c1cnc3ccccn13)nn2CC(F)(F)F)N1[C@@H]2CC[C@H]1C[C@@H](O)C2` [Compound 87, [3-(imidazo[1,2-a]pyridin-3-yl)-1-(2,2,2-trifluoroethyl)pyrazolo[4,3-c]pyridin-6-yl]-(3-endo-hydroxy-8-azabicyclo[3.2.1]octan-8-yl)methanone] has an IC50 (human A2B receptors) of less than 1 µM and an IC50 (human A2A receptors) of less than 0.1 µM.
In the case of `O=C(c1cc2c(cn1)c(-c1cnn3ccncc13)nn2CC(F)(F)F)N1CCCOCC1` [Compound 249, 1,4-Oxazepan-4-yl-[3-pyrazolo[1,5-a]pyrazin-3-yl-1-(2,2,2-trifluoro-ethyl)-1H-pyrazolo[4,3-c]pyridin-6-yl]-methanone], the IC50 (human A2B receptors) is reported as less than 1 µM and the IC50 (human A2A receptors) is reported as less than 0.1 µM.
Work on `O=C(c1cc2c(cn1)c(-c1c[nH]c3ccccc13)nn2CC(F)(F)F)N1[C@@H]2CC[C@H]1C[C@@H](O)C2` [Compound 112, (3-endo-hydroxy-8-azabicyclo[3.2.1]octan-8-yl)-[3-(1H-indol-3-yl)-1-(2,2,2-trifluoroethyl)pyrazolo[4,3-c]pyridin-6-yl]methanone] yielded an IC50 (human A2B receptors) of less than 0.1 µM and an IC50 (human A2A receptors) of less than 0.1 µM.
`O=C(c1cc2c(cn1)c(-c1c[nH]c3ncccc13)nn2CC(F)(F)F)N1CCCCCC1` [Compound 92, Azepan-1-yl-[3-(1H-pyrrolo[2,3-b]pyridin-3-yl)-1-(2,2,2-trifluoro-ethyl)-1H-pyrazolo[4,3-c]pyridin-6-yl]-methanone] was tested, and the IC50 (human A2B receptors) was less than 1 µM and the IC50 (human A2A receptors) was less than 0.1 µM.
Work on `CN(CCNC(=O)OC(C)(C)C)C(=O)c1cc2c(cn1)c(-c1cnc3c(F)cc(F)cn13)nn2CC(F)(F)F` [Compound 197, (2-{[3-(6,8-Difluoro-imidazo[1,2-a]pyridin-3-yl)-1-(2,2,2-trifluoro-ethyl)-1H-pyrazolo[4,3-c]pyridine-6-carbonyl]-methyl-amino}-ethyl)-carbamic Acid Tert-Butyl Ester] yielded an IC50 (human A2B receptors) of less than 1 µM and an IC50 (human A2A receptors) of less than 0.1 µM.
`CS(=O)(=O)Cn1nc(-c2coc3ccccc23)c2cnc(C(=O)N3CCCC(O)CC3)cc21` (stereo not drawn) [Compound 40, (3-Benzofuran-3-yl-1-methanesulfonylmethyl-1H-pyrazolo[4,3-c]pyridin-6-yl)-(4-hydroxyazepan-1-yl)-methanone] showed an IC50 (human A2B receptors) of less than 0.1 µM and an IC50 (human A2A receptors) of less than 0.1 µM.
In the case of `CS(=O)(=O)Cn1nc(-c2coc3ccccc23)c2cnc(C(=O)N3CC4CCC(C3)C4O)cc21` (stereo not drawn) [Compound 30, (3-Benzofuran-3-yl-1-methanesulfonylmethyl-1H-pyrazolo[4,3-c]pyridin-6-yl)-(8-endo-hydroxy-3-aza-bicyclo[3.2.1]oct-3-yl)-methanone], the IC50 (human A2B receptors) is reported as less than 0.1 µM and the IC50 (human A2A receptors) is reported as less than 0.1 µM.
Compound `O=C(c1cc2c(cn1)c(-c1coc3ccccc13)nn2CC(F)(F)F)N(C1CC1)C1CC1` [Compound 232, 3-(benzofuran-3-yl)-N,N-di(cyclopropyl)-1-(2,2,2-trifluoroethyl)-pyrazolo[4,3-c]pyridine-6-carboxamide] has an IC50 (human A2B receptors) of less than 1 µM and an IC50 (human A2A receptors) of less than 0.1 µM.
With `O=C(c1cc2c(cn1)c(-c1cnn3ccccc13)nn2CC(F)(F)F)N1CCOCC(O)C1` (stereo not drawn) [Compound 119, (6-hydroxy-1,4-oxazepan-4-yl)-[3-pyrazolo[1,5-a]pyridin-3-yl-1-(2,2,2-trifluoroethyl)pyrazolo[4,3-c]pyridin-6-yl]methanone] the IC50 (human A2B receptors) was less than 1 µM and the IC50 (human A2A receptors) was less than 0.1 µM.
With `[2H]C1([2H])COCCN(C(=O)c2cc3c(cn2)c(-c2coc4ccccc24)nn3CC(F)(F)F)C1` [Compound 229, [3-(benzofuran-3-yl)-1-(2,2,2-trifluoroethyl)pyrazolo[4,3-c]pyridin-6-yl]-(6,6-dideuterio-1,4-oxazepan-4-yl)methanone] the IC50 (human A2B receptors) was less than 0.1 µM and the IC50 (human A2A receptors) was less than 0.1 µM.
In the case of `[2H]C1([2H])COCCN(C(=O)c2cc3c(cn2)c(-c2c[nH]c4ccccc24)nn3CC(F)(F)F)C1` [Example 242, (6,6-dideuterio-1,4-oxazepan-4-yl)-[3-(1H-indol-3-yl)-1-(2,2,2-trifluoroethyl)pyrazolo[4,3-c]pyridin-6-yl]methanone], the IC50 (human A2B receptors) is reported as less than 1 µM and the IC50 (human A2A receptors) is reported as less than 0.1 µM.
Work on `O=C(c1cc2c(cn1)c(-c1cnc3ccc(F)cn13)nn2CC(F)(F)F)N1CCC(O)CC1` [Compound 131, [3-(6-Fluoro-imidazo[1,2-a]pyridin-3-yl)-1-(2,2,2-trifluoro-ethyl)-1H-pyrazolo[4,3-c]pyridin-6-yl]-(4-hydroxy-piperidin-1-yl)-methanone] yielded an IC50 (human A2B receptors) of less than 1 µM and an IC50 (human A2A receptors) of less than 0.1 µM.
